Measurements published in ChEMBL document CHEMBL4507303, “Data for DCP probe TP-004” (2021).

Columns and labels:
[1] = target: Tyrosine-protein kinase ABL2 (Homo sapiens) (UniProt P42684); conditions: Compound concentration 1000.0 nM
[2] = system: ALK tyrosine kinase receptor (Homo sapiens), Q9UM73 [L1196M]; conditions: Compound concentration 1000.0 nM
[3] = target: Myosin light chain kinase (Homo sapiens) (UniProt Q32MK0); conditions: Compound concentration 1000.0 nM
[4] = target: Ribosomal protein S6 kinase beta-1 (Homo sapiens) (UniProt P23443); conditions: Compound concentration 1000.0 nM
[5] = system: Epidermal growth factor receptor (Homo sapiens), P00533 [L861Q]; conditions: Compound concentration 1000.0 nM
[6] = target: STE20-like serine/threonine-protein kinase (Homo sapiens) (UniProt Q9H2G2); conditions: Compound concentration 1000.0 nM
[7] = target: Serine/threonine-protein kinase 32A (Homo sapiens) (UniProt Q8WU08); conditions: Compound concentration 1000.0 nM
[8] = system: eIF-2-alpha kinase GCN2 (Homo sapiens), Q9P2K8 [S808G]; conditions: Compound concentration 1000.0 nM
[9] = target: Receptor-interacting serine/threonine-protein kinase 1 (Homo sapiens) (UniProt Q13546); conditions: Compound concentration 1000.0 nM
[10] = target: 5'-AMP-activated protein kinase catalytic subunit alpha-1 (Homo sapiens) (UniProt Q13131); conditions: Compound concentration 1000.0 nM
[11] = target: Calcium/calmodulin-dependent protein kinase type 1G (Homo sapiens) (UniProt Q96NX5); conditions: Compound concentration 1000.0 nM
[12] = target: Non-receptor tyrosine-protein kinase TNK1 (Homo sapiens) (UniProt Q13470); conditions: Compound concentration 1000.0 nM
[13] = target: Serine/threonine-protein kinase TAO2 (Homo sapiens) (UniProt Q9UL54); conditions: Compound concentration 1000.0 nM
[14] = target: Cyclin-dependent kinase 9 (Homo sapiens) (UniProt P50750); conditions: Compound concentration 1000.0 nM
[15] = target: Tyrosine-protein kinase HCK (Homo sapiens) (UniProt P08631); conditions: Compound concentration 1000.0 nM
[16] = system: Proto-oncogene tyrosine-protein kinase receptor Ret (Homo sapiens), P07949 [V804L]; conditions: Compound concentration 1000.0 nM
[17] = target: Muscarinic acetylcholine receptor M2 (Homo sapiens) (UniProt P08172); conditions: Compound concentration 10.0 uM
[18] = system: Tyrosine-protein kinase ABL1 (Homo sapiens), P00519 [Q252H]; conditions: Compound concentration 1000.0 nM
[19] = target: Serine/threonine-protein kinase 33 (Homo sapiens) (UniProt Q9BYT3); conditions: Compound concentration 1000.0 nM
[20] = target: Ribosomal protein S6 kinase alpha-3 (Homo sapiens) (UniProt P51812); conditions: Compound concentration 1000.0 nM
[21] = target: Serine/threonine-protein kinase Nek2 (Homo sapiens) (UniProt P51955); conditions: Compound concentration 1000.0 nM
[22] = system: Tyrosine-protein kinase ABL1 (Homo sapiens), P00519 [H396P]; conditions: Compound concentration 1000.0 nM
[23] = target: Platelet-derived growth factor receptor beta (Homo sapiens) (UniProt P09619); conditions: Compound concentration 1000.0 nM
[24] = target: Serine/threonine-protein kinase MRCK gamma (Homo sapiens) (UniProt Q6DT37); conditions: Compound concentration 1000.0 nM
[25] = target: Mitogen-activated protein kinase kinase kinase kinase 1 (Homo sapiens) (UniProt Q92918); conditions: Compound concentration 1000.0 nM
[26] = target: Serine/threonine-protein kinase WNK2 (Homo sapiens) (UniProt Q9Y3S1); conditions: Compound concentration 1000.0 nM
[27] = target: Serine/threonine-protein kinase Chk1 (Homo sapiens) (UniProt O14757); conditions: Compound concentration 1000.0 nM
[28] = target: Alpha-1A adrenergic receptor (Homo sapiens) (UniProt P35348); conditions: Compound concentration 10.0 uM
[29] = target: Cyclin-dependent kinase 17 (Homo sapiens) (UniProt Q00537); conditions: Compound concentration 1000.0 nM
[30] = target: Serine/threonine-protein kinase TBK1 (Homo sapiens) (UniProt Q9UHD2); conditions: Compound concentration 1000.0 nM
[31] = target: Ephrin type-B receptor 3 (Homo sapiens) (UniProt P54753); conditions: Compound concentration 1000.0 nM
[32] = target: Mitogen-activated protein kinase 10 (Homo sapiens) (UniProt P53779); conditions: Compound concentration 1000.0 nM
[33] = target: Serine/threonine-protein kinase LATS2 (Homo sapiens) (UniProt Q9NRM7); conditions: Compound concentration 1000.0 nM
[34] = target: Serine/threonine-protein kinase MRCK beta (Homo sapiens) (UniProt Q9Y5S2); conditions: Compound concentration 1000.0 nM
[35] = target: Serine/threonine-protein kinase TNNI3K (Homo sapiens) (UniProt Q59H18); conditions: Compound concentration 1000.0 nM
[36] = target: NUAK family SNF1-like kinase 1 (Homo sapiens) (UniProt O60285); conditions: Compound concentration 1000.0 nM
[37] = target: Cyclin-dependent kinase 14 (Homo sapiens) (UniProt O94921); conditions: Compound concentration 1000.0 nM
[38] = target: Tyrosine-protein kinase CSK (Homo sapiens) (UniProt P41240); conditions: Compound concentration 1000.0 nM
[39] = system: ALK tyrosine kinase receptor (Homo sapiens), Q9UM73 [C1156Y]; conditions: Compound concentration 1000.0 nM
[40] = target: Cyclin-G-associated kinase (Homo sapiens) (UniProt O14976); conditions: Compound concentration 1000.0 nM
[41] = target: Insulin receptor (Homo sapiens) (UniProt P06213); conditions: Compound concentration 1000.0 nM
[42] = system: Epidermal growth factor receptor (Homo sapiens), P00533 [UNDEFINED MUTATION]; conditions: Compound concentration 1000.0 nM
[43] = target: Fibroblast growth factor receptor 4 (Homo sapiens) (UniProt P22455); conditions: Compound concentration 1000.0 nM
[44] = target: Beta-3 adrenergic receptor (Homo sapiens) (UniProt P13945); conditions: Compound concentration 10.0 uM
[45] = target: MAP/microtubule affinity-regulating kinase 3 (Homo sapiens) (UniProt P27448); conditions: Compound concentration 1000.0 nM
MAP/microtubule affinity-regulating kinase 3 (Homo sapiens), sequence (P27448 whole entry, looked up): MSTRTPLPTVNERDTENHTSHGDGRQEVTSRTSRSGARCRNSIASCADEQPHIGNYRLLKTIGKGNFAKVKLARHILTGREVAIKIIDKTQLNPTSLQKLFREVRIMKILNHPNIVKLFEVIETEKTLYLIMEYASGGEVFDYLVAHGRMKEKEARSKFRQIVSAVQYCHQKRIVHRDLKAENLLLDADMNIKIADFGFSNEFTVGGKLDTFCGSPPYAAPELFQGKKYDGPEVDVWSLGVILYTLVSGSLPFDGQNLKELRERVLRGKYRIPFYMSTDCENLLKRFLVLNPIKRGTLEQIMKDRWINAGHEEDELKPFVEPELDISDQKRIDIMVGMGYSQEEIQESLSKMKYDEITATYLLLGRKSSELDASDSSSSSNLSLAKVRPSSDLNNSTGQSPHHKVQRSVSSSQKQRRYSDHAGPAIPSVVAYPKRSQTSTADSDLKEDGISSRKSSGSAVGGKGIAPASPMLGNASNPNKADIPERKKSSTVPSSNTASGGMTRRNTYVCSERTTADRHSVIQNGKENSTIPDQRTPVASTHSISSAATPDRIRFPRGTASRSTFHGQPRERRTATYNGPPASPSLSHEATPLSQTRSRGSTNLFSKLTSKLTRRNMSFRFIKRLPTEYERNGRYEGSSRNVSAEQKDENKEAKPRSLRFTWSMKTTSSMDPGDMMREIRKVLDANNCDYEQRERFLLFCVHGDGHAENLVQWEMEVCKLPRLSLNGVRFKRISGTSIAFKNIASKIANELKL

Platelet-derived growth factor receptor beta (Homo sapiens), sequence (P09619 whole entry): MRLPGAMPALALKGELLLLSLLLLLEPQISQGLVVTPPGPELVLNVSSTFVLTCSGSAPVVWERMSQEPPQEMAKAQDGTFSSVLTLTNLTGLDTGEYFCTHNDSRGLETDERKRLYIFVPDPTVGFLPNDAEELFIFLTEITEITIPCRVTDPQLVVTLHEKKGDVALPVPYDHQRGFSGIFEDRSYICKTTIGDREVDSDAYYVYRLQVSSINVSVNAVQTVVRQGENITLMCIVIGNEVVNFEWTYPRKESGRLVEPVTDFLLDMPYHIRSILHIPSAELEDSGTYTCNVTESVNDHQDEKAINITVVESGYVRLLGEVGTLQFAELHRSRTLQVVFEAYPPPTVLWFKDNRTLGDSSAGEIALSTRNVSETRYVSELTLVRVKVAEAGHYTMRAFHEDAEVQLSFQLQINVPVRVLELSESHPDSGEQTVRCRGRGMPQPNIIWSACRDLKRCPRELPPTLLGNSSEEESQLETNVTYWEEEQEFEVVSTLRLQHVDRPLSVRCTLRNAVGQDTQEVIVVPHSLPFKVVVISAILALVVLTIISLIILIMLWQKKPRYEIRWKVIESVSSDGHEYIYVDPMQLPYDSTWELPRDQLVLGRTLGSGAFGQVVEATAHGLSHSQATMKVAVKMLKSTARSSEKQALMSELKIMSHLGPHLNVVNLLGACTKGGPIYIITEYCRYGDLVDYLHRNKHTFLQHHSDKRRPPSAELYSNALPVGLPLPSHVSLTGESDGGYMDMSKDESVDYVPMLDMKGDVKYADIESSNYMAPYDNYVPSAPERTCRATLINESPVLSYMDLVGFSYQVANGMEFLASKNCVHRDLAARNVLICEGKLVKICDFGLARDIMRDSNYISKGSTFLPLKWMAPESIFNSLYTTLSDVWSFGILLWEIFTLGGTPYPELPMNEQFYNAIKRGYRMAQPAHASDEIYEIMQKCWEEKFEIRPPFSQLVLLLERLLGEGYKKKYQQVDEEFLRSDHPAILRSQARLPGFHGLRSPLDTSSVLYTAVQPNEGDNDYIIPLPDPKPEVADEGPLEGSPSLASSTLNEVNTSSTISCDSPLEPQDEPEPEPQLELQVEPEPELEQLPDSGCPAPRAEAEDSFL
Receptor-interacting serine/threonine-protein kinase 1 (Homo sapiens), sequence (Q13546 whole entry): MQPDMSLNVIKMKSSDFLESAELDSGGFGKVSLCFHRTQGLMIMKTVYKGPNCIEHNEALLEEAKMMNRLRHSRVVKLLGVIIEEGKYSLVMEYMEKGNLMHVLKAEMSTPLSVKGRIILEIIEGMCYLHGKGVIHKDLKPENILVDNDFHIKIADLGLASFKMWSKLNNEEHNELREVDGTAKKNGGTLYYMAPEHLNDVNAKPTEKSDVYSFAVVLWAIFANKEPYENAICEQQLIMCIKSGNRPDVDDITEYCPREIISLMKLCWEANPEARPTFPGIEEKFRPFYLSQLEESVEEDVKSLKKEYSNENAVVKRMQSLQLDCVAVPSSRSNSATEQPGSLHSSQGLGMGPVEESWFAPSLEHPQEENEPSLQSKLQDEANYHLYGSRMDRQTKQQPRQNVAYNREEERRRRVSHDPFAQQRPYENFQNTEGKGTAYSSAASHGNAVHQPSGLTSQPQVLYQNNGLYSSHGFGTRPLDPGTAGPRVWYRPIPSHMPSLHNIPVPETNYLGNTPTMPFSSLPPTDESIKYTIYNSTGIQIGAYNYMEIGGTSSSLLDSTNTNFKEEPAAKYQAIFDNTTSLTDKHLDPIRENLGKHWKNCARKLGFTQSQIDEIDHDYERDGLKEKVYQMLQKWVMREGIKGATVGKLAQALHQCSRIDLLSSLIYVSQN
5'-AMP-activated protein kinase catalytic subunit alpha-1 (Homo sapiens), sequence (Q13131 whole entry, looked up): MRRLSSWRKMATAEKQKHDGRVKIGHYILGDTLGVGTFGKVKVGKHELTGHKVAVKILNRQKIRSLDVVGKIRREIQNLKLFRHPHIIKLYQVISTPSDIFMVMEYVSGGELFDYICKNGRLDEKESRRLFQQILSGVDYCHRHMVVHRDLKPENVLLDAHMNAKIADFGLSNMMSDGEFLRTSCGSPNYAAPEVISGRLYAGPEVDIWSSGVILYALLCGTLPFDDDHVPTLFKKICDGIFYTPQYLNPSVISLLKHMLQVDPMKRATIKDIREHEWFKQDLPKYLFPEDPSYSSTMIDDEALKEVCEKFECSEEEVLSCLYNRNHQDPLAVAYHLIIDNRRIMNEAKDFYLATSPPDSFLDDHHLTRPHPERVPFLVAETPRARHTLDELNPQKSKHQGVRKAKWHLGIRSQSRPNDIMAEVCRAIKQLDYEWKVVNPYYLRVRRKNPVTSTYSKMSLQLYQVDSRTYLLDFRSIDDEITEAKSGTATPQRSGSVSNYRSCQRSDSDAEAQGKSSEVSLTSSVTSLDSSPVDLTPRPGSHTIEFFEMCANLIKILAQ
Serine/threonine-protein kinase MRCK gamma (Homo sapiens), sequence (Q6DT37 whole entry): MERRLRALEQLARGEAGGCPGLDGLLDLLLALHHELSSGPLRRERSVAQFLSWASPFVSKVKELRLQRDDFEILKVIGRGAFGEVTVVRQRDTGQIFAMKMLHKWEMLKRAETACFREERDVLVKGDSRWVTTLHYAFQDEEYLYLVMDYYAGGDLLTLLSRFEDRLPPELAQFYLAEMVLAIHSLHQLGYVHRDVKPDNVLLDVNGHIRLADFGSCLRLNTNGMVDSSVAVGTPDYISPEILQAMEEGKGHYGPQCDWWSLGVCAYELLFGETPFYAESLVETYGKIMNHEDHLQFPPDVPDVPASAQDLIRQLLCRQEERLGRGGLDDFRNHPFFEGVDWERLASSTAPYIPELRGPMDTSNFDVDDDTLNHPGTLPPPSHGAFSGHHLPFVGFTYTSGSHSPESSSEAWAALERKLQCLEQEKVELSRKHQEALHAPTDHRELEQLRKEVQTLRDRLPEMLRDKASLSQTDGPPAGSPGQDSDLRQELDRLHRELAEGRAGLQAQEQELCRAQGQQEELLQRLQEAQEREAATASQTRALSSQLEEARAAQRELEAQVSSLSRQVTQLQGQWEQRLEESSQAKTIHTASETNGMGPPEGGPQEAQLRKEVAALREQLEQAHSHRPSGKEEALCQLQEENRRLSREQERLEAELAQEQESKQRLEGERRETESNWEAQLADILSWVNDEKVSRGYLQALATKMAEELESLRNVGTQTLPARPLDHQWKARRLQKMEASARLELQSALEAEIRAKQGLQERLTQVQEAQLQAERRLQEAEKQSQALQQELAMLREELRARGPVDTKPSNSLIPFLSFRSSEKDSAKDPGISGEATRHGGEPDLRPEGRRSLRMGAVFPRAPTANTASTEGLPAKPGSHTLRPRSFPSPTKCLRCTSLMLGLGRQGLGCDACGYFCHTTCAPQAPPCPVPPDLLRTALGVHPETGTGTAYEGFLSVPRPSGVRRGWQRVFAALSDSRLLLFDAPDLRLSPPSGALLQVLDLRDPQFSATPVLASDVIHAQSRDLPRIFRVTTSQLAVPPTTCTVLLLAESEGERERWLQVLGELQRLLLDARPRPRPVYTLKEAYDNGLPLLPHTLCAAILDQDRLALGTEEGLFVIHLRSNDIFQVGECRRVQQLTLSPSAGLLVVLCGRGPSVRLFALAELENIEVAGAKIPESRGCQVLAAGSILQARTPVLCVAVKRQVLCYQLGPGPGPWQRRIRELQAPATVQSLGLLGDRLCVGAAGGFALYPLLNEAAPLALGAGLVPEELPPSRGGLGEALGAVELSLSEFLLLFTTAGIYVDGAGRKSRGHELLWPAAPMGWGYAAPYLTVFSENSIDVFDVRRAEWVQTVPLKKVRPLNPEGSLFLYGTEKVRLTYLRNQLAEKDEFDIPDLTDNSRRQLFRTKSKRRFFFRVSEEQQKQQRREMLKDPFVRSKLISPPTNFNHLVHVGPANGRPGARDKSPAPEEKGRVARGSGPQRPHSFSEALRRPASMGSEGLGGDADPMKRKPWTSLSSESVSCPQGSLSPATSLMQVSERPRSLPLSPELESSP
Mitogen-activated protein kinase 10 (Homo sapiens), sequence (P53779 whole entry): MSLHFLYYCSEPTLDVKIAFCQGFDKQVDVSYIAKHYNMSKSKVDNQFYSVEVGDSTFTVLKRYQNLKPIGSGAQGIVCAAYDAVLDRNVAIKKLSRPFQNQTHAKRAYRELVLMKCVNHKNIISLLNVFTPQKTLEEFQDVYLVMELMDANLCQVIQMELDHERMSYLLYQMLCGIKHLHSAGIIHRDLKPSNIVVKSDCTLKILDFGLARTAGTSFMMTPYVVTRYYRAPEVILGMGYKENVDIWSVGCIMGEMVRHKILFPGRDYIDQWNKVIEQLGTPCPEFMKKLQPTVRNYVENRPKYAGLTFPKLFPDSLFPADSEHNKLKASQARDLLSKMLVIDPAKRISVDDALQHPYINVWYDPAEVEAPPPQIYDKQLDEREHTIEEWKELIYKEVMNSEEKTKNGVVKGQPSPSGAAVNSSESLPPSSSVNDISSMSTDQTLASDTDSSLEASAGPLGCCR

Structure (SMILES): Cc1nc(N2CC[C@@H](O)C2)ncc1-c1cc(C(F)(F)F)cc2[nH]ncc12 [TP-004]
- residual activity [1]: 60%
- residual activity [2]: 98%
- residual activity [3]: 98%
- residual activity [4]: 90%
- residual activity [5]: 100%
- residual activity [6]: 98%
- residual activity [7]: 85%
- residual activity [8]: 76%
- residual activity [9]: 100%
- residual activity [10]: 89%
- residual activity [11]: 100%
- residual activity [12]: 100%
- residual activity [13]: 100%
- residual activity [14]: 87%
- residual activity [15]: 100%
- residual activity [16]: 100%
- inhibition [17]: -8.94%
- residual activity [18]: 79%
- residual activity [19]: 100%
- residual activity [20]: 58%
- residual activity [21]: 92%
- residual activity [22]: 61%
- residual activity [23]: 58%
- residual activity [24]: 100%
- residual activity [25]: 100%
- residual activity [26]: 41%
- residual activity [27]: 100%
- inhibition [28]: 15.7%
- residual activity [29]: 91%
- residual activity [30]: 82%
- residual activity [31]: 100%
- residual activity [32]: 72%
- residual activity [33]: 26%
- residual activity [34]: 100%
- residual activity [35]: 87%
- residual activity [36]: 83%
- residual activity [37]: 100%
- residual activity [38]: 100%
- residual activity [39]: 100%
- residual activity [40]: 83%
- residual activity [41]: 100%
- residual activity [42]: 83%
- residual activity [43]: 90%
- inhibition [44]: 20.7%
- residual activity [45]: 100%
